Laboratory results published in DBAASP.
≈ marks a conversion by molar mass, not a printed value.

Columns and labels:
Experiment in all cases: ≥ marks a high value that may be exact or a test limit, other limits are often not marked, values filed in µg/mL are converted to µM
[1] = system: Staphylococcus aureus NCTC 10788
[2] = system: Staphylococcus aureus ATCC 25923
[3] = system: Escherichia coli ATCC 25726
[4] = system: Candida albicans ATCC 90028
Salmonella typhimurium = system: Salmonella typhimurium
Klebsiella pneumoniae = system: Klebsiella pneumoniae
Pseudomonas aeruginosa = system: Pseudomonas aeruginosa
[5] = system: Escherichia coli DH5alpha
[6] = system: Micrococcus luteus ATCC 9341
[7] = system: Bacillus subtilis KCTC 3068
[8] = system: Salmonella typhimurium KCTC 1926
[9] = system: Staphylococcus aureus KCTC 1621
[10] = system: Staphylococcus epidermidis KCTC 1917
[11] = system: Escherichia coli KCTC 1682
[12] = system: Pseudomonas aeruginosa KCTC 1637
[13] = system: Escherichia coli ATCC 25922
[14] = system: Staphylococcus aureus ATCC 33591

CC(C)C[C@H](NC(=O)[C@H](CC(C)C)NC(=O)CNC(=O)[C@H](C)NC(=O)[C@H](CC(C)C)NC(=O)[C@H](CC(C)C)NC(=O)CNC(=O)[C@@H]1CCCN1C(=O)[C@H](CC(C)C)NC(=O)[C@@H](N)Cc1ccccc1)C(N)=O [FLPGLLAGLL]
MIC [1]: ≥ 60 µM

CC[C@H](C)[C@H](NC(=O)[C@H](CC(C)C)NC(=O)[C@H](Cc1cnc[nH]1)NC(=O)[C@@H]1CCCN1C(=O)[C@@H](NC(=O)[C@@H](NC(=O)[C@H](CCCCN)NC(=O)[C@H](C)NC(=O)[C@@H](NC(=O)CNC(=O)[C@H](CCCCN)NC(=O)[C@H](CC(C)C)NC(=O)CNC(=O)[C@H](CC(C)C)NC(=O)[C@H](CCCCN)NC(=O)[C@H](CC(C)C)NC(=O)[C@H](CC(C)C)NC(=O)[C@@H]1CCCN1C(=O)CNC(=O)[C@H](CC(C)C)NC(=O)[C@H](Cc1ccccc1)NC(=O)CN)C(C)C)C(C)C)[C@@H](C)CC)C(=O)N1CCC[C@H]1C(=O)N[C@@H](CO)C(=O)N[C@@H](CCCN=C(N)N)C(=O)N[C@@H](CCC(N)=O)C(=O)N[C@@H](CCC(N)=O)C(=O)O [GFLGPLLKLGLKGVAKVIPHLIPSRQQ]
MIC [2]: 2.5 µM (≈ 7.2 µg/mL) | MIC [3]: ≥ 40 µM

CC[C@H](C)[C@H](NC(=O)[C@@H](NC(=O)[C@@H](NC(=O)CNC(=O)[C@H](C)NC(=O)[C@@H](NC(=O)[C@H](CC(N)=O)NC(=O)[C@@H](NC(=O)[C@H](C)NC(=O)[C@H](CC(C)C)NC(=O)[C@H](CC(N)=O)NC(=O)[C@H](CCCCN)NC(=O)[C@H](Cc1ccccc1)NC(=O)[C@@H](NC(=O)[C@H](CO)NC(=O)[C@H](CC(C)C)NC(=O)[C@H](CC(C)C)NC(=O)CN)[C@@H](C)O)[C@@H](C)O)C(C)C)[C@@H](C)O)C(C)C)C(=O)N[C@@H](CC(=O)O)C(=O)N[C@H](C(=O)N[C@@H](CC(C)C)C(=O)N[C@@H](CCCCN)C(=O)N[C@H]1CSSC[C@@H](C(=O)N[C@@H](CCCN=C(N)N)C(=O)N[C@H](C(=O)O)[C@@H](C)O)NC(=O)CNC(=O)CNC(=O)[C@H]([C@@H](C)O)NC(=O)[C@H](C(C)C)NC(=O)[C@H](CCCCN)NC1=O)[C@@H](C)O [GLLSTFKNLATNVAGTVIDTLKCKVTGGCRT]
MIC [2]: > 80 µM | MIC [4]: ≥ 80 µM | MIC [3]: ≥ 80 µM

CC[C@H](C)[C@H](N)C(=O)N[C@@H](CC(C)C)C(=O)N[C@@H](C)C(=O)N[C@@H](Cc1c[nH]c2ccccc12)C(=O)N[C@@H](CCCCN)C(=O)N[C@@H](Cc1c[nH]c2ccccc12)C(=O)N[C@@H](C)C(=O)N[C@@H](Cc1c[nH]c2ccccc12)C(=O)N[C@@H](Cc1c[nH]c2ccccc12)C(=O)N1CCC[C@H]1C(=O)N[C@@H](Cc1c[nH]c2ccccc12)C(=O)N[C@@H](CCCN=C(N)N)C(=O)N[C@@H](CCCN=C(N)N)C(N)=O [ILAWKWAWWPWRR]
MIC (Salmonella typhimurium): 25 µM (≈ 46.4 µg/mL) | MIC (Klebsiella pneumoniae): 25 µM (≈ 46.4 µg/mL) | MIC (Pseudomonas aeruginosa): 100 µM (≈ 185 µg/mL) | MIC [5]: 15 µM (≈ 27.8 µg/mL)

CC[C@H](C)[C@H](N)C(=O)N[C@@H](CC(C)C)C(=O)N[C@@H](C)C(=O)N[C@@H](Cc1c[nH]c2ccccc12)C(=O)N[C@@H](CCCCN)C(=O)N[C@@H](Cc1c[nH]c2ccccc12)C(=O)N1CCC[C@H]1C(=O)N[C@@H](Cc1c[nH]c2ccccc12)C(=O)N[C@@H](Cc1c[nH]c2ccccc12)C(=O)N[C@@H](C)C(=O)N[C@@H](Cc1c[nH]c2ccccc12)C(=O)N[C@@H](CCCN=C(N)N)C(=O)N[C@@H](CCCN=C(N)N)C(N)=O [ILAWKWPWWAWRR]
MIC (Salmonella typhimurium): 25 µM (≈ 46.4 µg/mL) | MIC (Klebsiella pneumoniae): 50 µM (≈ 92.7 µg/mL) | MIC (Pseudomonas aeruginosa): 100 µM (≈ 185 µg/mL) | MIC [5]: 25 µM (≈ 46.4 µg/mL)

CC[C@H](C)[C@H](N)C(=O)N[C@@H](CC(C)C)C(=O)N1CCC[C@H]1C(=O)N[C@H](C(=O)N[C@@H](CCCCN)C(=O)N[C@H](C(=O)N1CCC[C@H]1C(=O)N[C@H](C(=O)N[C@H](C(=O)N1CCC[C@H]1C(=O)N[C@H](C(=O)N[C@@H](CCCN=C(N)N)C(=O)N[C@@H](CCCN=C(N)N)C(N)=O)C(C)C)C(C)C)C(C)C)C(C)C)C(C)C [ILPVKVPVVPVRR]
MIC [6]: ≥ 100 µM

CC[C@H](C)[C@H](N)C(=O)N[C@@H](CC(C)C)C(=O)N1CCC[C@H]1C(=O)N[C@@H](Cc1c[nH]c2ccccc12)C(=O)N[C@@H](C)C(=O)N[C@@H](Cc1c[nH]c2ccccc12)C(=O)N1CCC[C@H]1C(=O)N[C@@H](Cc1c[nH]c2ccccc12)C(=O)N[C@@H](Cc1c[nH]c2ccccc12)C(=O)N1CCC[C@H]1C(=O)N[C@@H](Cc1c[nH]c2ccccc12)C(=O)N[C@@H](CCCN=C(N)N)C(=O)N[C@@H](CCCN=C(N)N)C(N)=O [ILPWAWPWWPWRR]
MIC [6]: 0.8 µM (≈ 1.48 µg/mL)

CC[C@H](C)[C@H](N)C(=O)N[C@@H](CC(C)C)C(=O)N1CCC[C@H]1C(=O)N[C@@H](Cc1c[nH]c2ccccc12)C(=O)N[C@@H](CCCCN)C(=O)N[C@@H](CCCCN)C(=O)N1CCC[C@H]1C(=O)N[C@@H](CCCCN)C(=O)N[C@@H](CCCCN)C(=O)N1CCC[C@H]1C(=O)N[C@@H](Cc1c[nH]c2ccccc12)C(=O)N[C@@H](CCCN=C(N)N)C(=O)N[C@@H](CCCN=C(N)N)C(N)=O [ILPWKKPKKPWRR]
MIC [7]: 5.77 µM (≈ 9.99 µg/mL) | MIC [8]: 5.77 µM (≈ 9.99 µg/mL) | MIC [9]: 5.77 µM (≈ 9.99 µg/mL) | MIC [10]: 2.88 µM (≈ 5 µg/mL) | MIC [11]: 2.88 µM (≈ 5 µg/mL) | MIC [12]: 11.5 µM (≈ 20 µg/mL)

CC[C@H](C)[C@H](N)C(=O)N[C@@H](CC(C)C)C(=O)N1CCC[C@H]1C(=O)N[C@@H](Cc1c[nH]c2ccccc12)C(=O)N[C@@H](CCCN=C(N)N)C(=O)N[C@@H](Cc1c[nH]c2ccccc12)C(=O)N1CCC[C@H]1C(=O)N[C@@H](Cc1c[nH]c2ccccc12)C(=O)N[C@@H](Cc1c[nH]c2ccccc12)C(=O)N1CCC[C@H]1C(=O)N[C@@H](Cc1c[nH]c2ccccc12)C(=O)N[C@@H](CCCN=C(N)N)C(=O)N[C@@H](CCCN=C(N)N)C(N)=O [ILPWRWPWWPWRR]
MIC [6]: 0.4 µM (≈ 0.774 µg/mL)

CC[C@H](C)[C@H](N)C(=O)N[C@H](C(=O)N[C@H](C(=O)N1CCC[C@H]1C(=O)N1CCC[C@H]1C(=O)N[C@H](C(=O)N[C@H](C(=O)N[C@@H](CCCCN)C(=O)N[C@@H](CC(=O)O)C(=O)N[C@H](C(=O)N[C@@H](CC(C)C)C(=O)N[C@@H](CCCCN)C(=O)N[C@@H](CCCCN)C(=O)N[C@@H](Cc1ccccc1)C(=O)N[C@H](C(=O)N[C@@H](CCCCN)C(=O)NCC(=O)N[C@@H](C)C(=O)N[C@H](C(=O)N[C@@H](CO)C(=O)NCC(=O)N[C@H](C(=O)N[C@@H](CCSC)C(N)=O)C(C)C)[C@@H](C)CC)[C@@H](C)CC)[C@@H](C)O)C(C)C)[C@@H](C)CC)[C@@H](C)CC)[C@@H](C)O [ITIPPIVKDTLKKFIKGAISGVM]
MIC [2]: 20 µM (≈ 49.4 µg/mL) | MIC [3]: ≥ 80 µM

CC[C@H](C)[C@H](NC(=O)[C@@H](N)CCCCN)C(=O)N[C@@H](Cc1c[nH]c2ccccc12)C(=O)N[C@@H](Cc1ccccc1)C(=O)N[C@@H](CCC(N)=O)C(=O)N[C@@H](CC(N)=O)C(=O)N[C@@H](CCCN=C(N)N)C(=O)N[C@@H](CCCN=C(N)N)C(=O)N[C@@H](CCSC)C(=O)N[C@@H](CCCCN)C(=O)N[C@@H](Cc1c[nH]c2ccccc12)C(=O)N[C@@H](CCCCN)C(=O)N[C@@H](CCCCN)C(N)=O [KIWFQNRRMKWKK]
MIC [13]: 128 µM (≈ 237 µg/mL) | MIC [14]: ≥ 256 µM

C[C@@H](O)[C@H](NC(=O)[C@H](CCCCN)NC(=O)[C@H](Cc1c[nH]c2ccccc12)NC(=O)[C@H](Cc1c[nH]c2ccccc12)NC(=O)[C@@H](NC(=O)[C@H](CCCCN)NC(=O)[C@@H](N)CCCCN)[C@@H](C)O)C(=O)N[C@@H](Cc1c[nH]c2ccccc12)C(=O)N[C@@H](Cc1c[nH]c2ccccc12)C(=O)N[C@H](C(=O)N[C@@H](CCCCN)C(=O)N[C@@H](Cc1c[nH]c2ccccc12)C(=O)N[C@@H](CCCCN)C(=O)N[C@@H](CCCCN)C(=O)O)[C@@H](C)O [KKTWWKTWWTKWKK]
MIC [7]: 2 µM (≈ 4.04 µg/mL) | MIC [8]: 2 µM (≈ 4.04 µg/mL) | MIC [9]: 2 µM (≈ 4.04 µg/mL) | MIC [10]: 2 µM (≈ 4.04 µg/mL) | MIC [11]: 2 µM (≈ 4.04 µg/mL) | MIC [12]: 4 µM (≈ 8.09 µg/mL)

NCCCC[C@H](NC(=O)[C@H](Cc1c[nH]c2ccccc12)NC(=O)[C@@H]1CCCN1)C(=O)N[C@@H](Cc1c[nH]c2ccccc12)C(=O)N1CCC[C@H]1C(=O)N[C@@H](Cc1c[nH]c2ccccc12)C(=O)N[C@@H](Cc1c[nH]c2ccccc12)C(=O)N1CCC[C@H]1C(=O)N[C@@H](Cc1c[nH]c2ccccc12)C(=O)N[C@@H](CCCN=C(N)N)C(=O)N[C@@H](CCCN=C(N)N)C(N)=O [PWKWPWWPWRR]
MIC [6]: 0.8 µM (≈ 1.34 µg/mL)

CC[C@H](C)[C@H](NC(=O)[C@H](CCCN=C(N)N)NC(=O)[C@H](CC(C)C)NC(=O)[C@H](CC(C)C)NC(=O)[C@@H](N)CCCN=C(N)N)C(=O)N[C@H](C(=O)N[C@H](C(=O)N[C@H](C(=O)N[C@@H](CCCN=C(N)N)C(=O)N[C@H](C(=O)N[C@@H](CC(C)C)C(=O)N[C@@H](CCCN=C(N)N)C(N)=O)C(C)C)[C@@H](C)CC)C(C)C)C(C)C [RLLRIVVIRVLR]
MIC [7]: 8.3 µM (≈ 12.5 µg/mL) | MIC [8]: 4.15 µM (≈ 6.25 µg/mL) | MIC [9]: 8.3 µM (≈ 12.5 µg/mL) | MIC [10]: 8.3 µM (≈ 12.5 µg/mL) | MIC [11]: 16.6 µM (≈ 25 µg/mL) | MIC [12]: 4.15 µM (≈ 6.25 µg/mL)

NC(=O)[C@H](CCCN=C(N)N)NC(=O)[C@H](Cc1c[nH]c2ccccc12)NC(=O)[C@@H](N)CCCN=C(N)N [RWR]
MIC [9]: ≥ 124 µM | MIC [10]: ≥ 124 µM | MIC [11]: ≥ 124 µM | MIC [12]: ≥ 124 µM
